From US20100009014A1, “Use of composition for manufacture of medicant and method for inhibiting formation of body fat” (Maxluck Biotechnology Corp., priority 2008, published 2010)

Test: Epididymal fat weight and body weight, lactoferrin vs trivalent chromium vs combination (Test Example 5)
Type: in vivo, C57BL/6JNarl mice
Details: fed 7 weeks; for Body weight / Epididymal fat weight: high-fat diet
Procedure: The C57BL/6JNarl mice (N=70) are fed with a mouse diet (high-fat Rodent TestDiet, PMI Nutrition International Inc., MO, U.S.A.; 67% of calories provided by fat). The C57BL/6JNarl mice are randomly divided into seven groups and there are ten mice in each group. In one experimental group, the mice are fed with the mouse diet mixed with lactoferrin (NZMP lactoferrin, New Zealand, low dose: 40 mg/kg BW/day, high dose: 80 mg/kg BW/day). In another experimental group, the mice are fed with the mouse diet mixed with trivalent chromium (chromium (III) chloride hexahydrate, low dose: 40 μg/kg BW/day Cr^3+, high dose: 80 μg/kg BW/day Cr^3+). In yet another experimental group, the mice are fed with the mouse diet mixed with a lactoferrin/trivalent chromium composition (low dose: lactoferrin of 40 mg/kg BW/day with Cr^3+ of 40 μg/kg BW/day, high dose: lactoferrin of 80 mg/kg BW/day with Cr^3+ of 80 μg/kg BW/day). In the control group, the mice are fed with the mouse diet containing no other additive. The C57BL/6JNarl mice aged 8 weeks are fed for 7 weeks and then sacrificed to measure the weight of Epididymal fat and body weight, as shown in Table 5.
Accordingly, it can be known that the lactoferrin/trivalent chromium composition provides more significant efficiency in comparison to single lactoferrin or trivalent chromium.

[1] = High dose (lactoferrin 80 mg/kg BW/day and/or Cr3+ 80 μg/kg BW/day)
[2] = Low dose (lactoferrin 40 mg/kg BW/day and/or Cr3+ 40 μg/kg BW/day)

Q: Which Body weight [1] does the source give for `O.O.O.O.O.O.[Cl][Cr]([Cl])[Cl]` [Trivalent Chromium, chromium (III) chloride hexahydrate] here?
A: 27.7 ± 1.35 g

Q: What about the Epididymal fat weight [1] of the same compound?
A: 0.82 ± 0.2 g

Q: What about the Body weight [2] of the same compound?
A: 27.8 ± 1.33 g

Q: And the Epididymal fat weight [2]?
A: 0.78 ± 0.16 g

Q: And the “Epididymal fat weight and body weight vs control group (in words)” value?
A: cannot achieve significant efficiency
